# Source: US20230139171A1 (SITA Information Networking Computing UK Limited, priority 2019, published 2023)
# pIC50: −log10 of the molar value.
# Experiments:
# Format in all cases: cell-based
# [1] = biological target: T1, human TLR7 (Homo sapiens, UniProt Q9NYK1); assay: TLR7 inhibition reporter assay (HEK-Blue cells, SEAP reporter, gardiquimod stimulation); settings: HEK-Blue cells overexpressing human TLR7, SEAP reporter, gardiquimod 7.5 μM; read-out: TLR7 IC50
# T1 construct: host or cells: HEK-Blue cells
# T1 sequence (Q9NYK1 27-1049): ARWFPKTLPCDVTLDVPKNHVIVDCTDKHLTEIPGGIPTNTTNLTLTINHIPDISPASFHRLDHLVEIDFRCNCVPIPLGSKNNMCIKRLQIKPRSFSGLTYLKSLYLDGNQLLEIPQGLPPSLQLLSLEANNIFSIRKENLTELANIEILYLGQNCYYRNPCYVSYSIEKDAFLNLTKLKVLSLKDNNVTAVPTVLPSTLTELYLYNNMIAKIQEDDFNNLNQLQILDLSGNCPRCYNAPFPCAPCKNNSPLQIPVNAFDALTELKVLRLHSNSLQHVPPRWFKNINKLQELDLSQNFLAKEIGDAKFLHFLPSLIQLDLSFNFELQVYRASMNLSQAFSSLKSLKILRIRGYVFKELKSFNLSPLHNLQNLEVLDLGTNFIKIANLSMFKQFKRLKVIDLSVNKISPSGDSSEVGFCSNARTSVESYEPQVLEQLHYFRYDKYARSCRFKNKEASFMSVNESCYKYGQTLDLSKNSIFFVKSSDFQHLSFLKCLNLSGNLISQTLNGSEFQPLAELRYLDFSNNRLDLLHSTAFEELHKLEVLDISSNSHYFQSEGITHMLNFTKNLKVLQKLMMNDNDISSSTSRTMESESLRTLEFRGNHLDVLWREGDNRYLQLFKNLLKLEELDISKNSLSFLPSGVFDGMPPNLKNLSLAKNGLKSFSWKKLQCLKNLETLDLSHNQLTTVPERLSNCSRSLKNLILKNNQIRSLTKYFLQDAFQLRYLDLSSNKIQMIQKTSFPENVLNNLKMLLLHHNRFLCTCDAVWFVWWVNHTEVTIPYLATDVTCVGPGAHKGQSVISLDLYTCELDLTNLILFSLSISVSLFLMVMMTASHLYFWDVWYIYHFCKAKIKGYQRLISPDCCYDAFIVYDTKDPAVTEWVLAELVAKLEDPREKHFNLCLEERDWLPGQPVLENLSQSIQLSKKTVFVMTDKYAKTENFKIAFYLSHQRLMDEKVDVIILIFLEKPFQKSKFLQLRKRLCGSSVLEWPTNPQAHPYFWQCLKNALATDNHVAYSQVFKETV
# Method in brief: (§1)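 Agonists used: gardiquimod 7.5 μM (TLR7), R848 15.9 μM (TLR8), ODN2006 5 nM (TLR9), added after 30 min room-temperature compound pre-treatment (0.05 nM–50 μM) of receptor-overexpressing HEK-Blue cells. SEAP reporter (NF-κB/AP-1 driven) read after 22 h at 37 °C; inhibition scaled between agonist+DMSO and reference-inhibitor wells.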
# [2] = biological target: T2, human TLR8 (Homo sapiens, UniProt Q9NR97); assay: TLR8 inhibition reporter assay (HEK-Blue cells, SEAP reporter, R848 stimulation); settings: HEK-Blue cells overexpressing human TLR8, SEAP reporter, R848 15.9 μM; read-out: TLR8 IC50
# T2 construct: host or cells: HEK-Blue cells
# T2 sequence (Q9NR97 27-1041): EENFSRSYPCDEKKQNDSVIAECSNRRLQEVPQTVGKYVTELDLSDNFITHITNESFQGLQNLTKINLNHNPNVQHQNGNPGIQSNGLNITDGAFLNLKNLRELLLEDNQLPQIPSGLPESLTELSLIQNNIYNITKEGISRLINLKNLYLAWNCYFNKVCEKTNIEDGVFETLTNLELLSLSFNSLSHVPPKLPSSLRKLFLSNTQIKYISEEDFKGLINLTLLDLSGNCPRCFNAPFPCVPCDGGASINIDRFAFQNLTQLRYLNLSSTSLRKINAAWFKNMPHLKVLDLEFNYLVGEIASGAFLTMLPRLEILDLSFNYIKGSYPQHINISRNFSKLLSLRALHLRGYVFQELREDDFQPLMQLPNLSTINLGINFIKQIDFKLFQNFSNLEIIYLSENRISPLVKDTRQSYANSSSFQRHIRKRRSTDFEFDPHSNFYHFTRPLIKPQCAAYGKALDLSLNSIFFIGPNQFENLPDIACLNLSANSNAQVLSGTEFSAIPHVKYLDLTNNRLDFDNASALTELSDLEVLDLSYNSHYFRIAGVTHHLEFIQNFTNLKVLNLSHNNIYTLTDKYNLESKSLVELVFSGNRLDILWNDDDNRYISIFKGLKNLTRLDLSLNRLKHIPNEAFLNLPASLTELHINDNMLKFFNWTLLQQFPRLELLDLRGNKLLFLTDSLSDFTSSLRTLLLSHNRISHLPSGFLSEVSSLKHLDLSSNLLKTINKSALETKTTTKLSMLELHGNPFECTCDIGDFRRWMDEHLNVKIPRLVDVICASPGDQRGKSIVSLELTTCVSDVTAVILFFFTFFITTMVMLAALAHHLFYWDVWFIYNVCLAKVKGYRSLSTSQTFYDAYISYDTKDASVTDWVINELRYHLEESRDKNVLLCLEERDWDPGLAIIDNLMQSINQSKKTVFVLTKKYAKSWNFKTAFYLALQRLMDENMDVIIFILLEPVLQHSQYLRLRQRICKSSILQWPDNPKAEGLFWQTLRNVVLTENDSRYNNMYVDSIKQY
# Method in brief: as §1
# [3] = biological target: T3, human TLR9 (Homo sapiens, UniProt Q9NR96); assay: TLR9 inhibition reporter assay (HEK-Blue cells, SEAP reporter, ODN2006 stimulation); settings: HEK-Blue cells overexpressing human TLR9, SEAP reporter, ODN2006 5 nM
# T3 construct: host or cells: HEK-Blue cells
# T3 sequence (Q9NR96 26-1032): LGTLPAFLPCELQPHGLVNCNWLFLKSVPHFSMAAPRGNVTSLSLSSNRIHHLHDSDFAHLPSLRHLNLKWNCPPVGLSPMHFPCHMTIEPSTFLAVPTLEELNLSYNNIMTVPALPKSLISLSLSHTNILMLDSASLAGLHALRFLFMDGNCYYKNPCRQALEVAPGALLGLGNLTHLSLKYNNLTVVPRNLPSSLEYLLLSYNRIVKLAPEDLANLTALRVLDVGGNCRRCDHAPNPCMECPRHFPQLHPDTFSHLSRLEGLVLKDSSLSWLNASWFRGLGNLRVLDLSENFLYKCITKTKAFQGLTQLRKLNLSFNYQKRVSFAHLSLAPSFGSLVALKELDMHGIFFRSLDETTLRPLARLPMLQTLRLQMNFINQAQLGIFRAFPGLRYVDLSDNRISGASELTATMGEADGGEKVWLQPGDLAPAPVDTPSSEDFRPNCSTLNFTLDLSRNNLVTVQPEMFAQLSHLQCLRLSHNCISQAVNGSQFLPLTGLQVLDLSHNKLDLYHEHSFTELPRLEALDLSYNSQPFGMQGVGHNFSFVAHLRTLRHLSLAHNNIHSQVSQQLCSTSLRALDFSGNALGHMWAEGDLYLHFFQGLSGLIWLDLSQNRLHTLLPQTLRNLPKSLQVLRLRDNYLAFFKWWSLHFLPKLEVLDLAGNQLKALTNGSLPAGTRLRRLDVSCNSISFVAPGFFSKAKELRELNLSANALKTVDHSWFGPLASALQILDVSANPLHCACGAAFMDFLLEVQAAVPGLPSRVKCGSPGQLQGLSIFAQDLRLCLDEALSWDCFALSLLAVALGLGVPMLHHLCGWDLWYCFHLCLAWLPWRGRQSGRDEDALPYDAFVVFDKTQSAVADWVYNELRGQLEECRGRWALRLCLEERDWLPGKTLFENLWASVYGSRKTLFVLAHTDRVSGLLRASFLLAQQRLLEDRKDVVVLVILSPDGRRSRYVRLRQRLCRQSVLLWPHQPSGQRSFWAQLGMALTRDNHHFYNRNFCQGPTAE
# Method in brief: as §1
SMILES,pIC50 [1],pIC50 [2],pIC50 [3]
"COc1cc(-c2[nH]c3sc(C4CCC(N5CC6(C5)CS(=O)(=O)C6)CC4)nc3c2C(C)C)cn2ncnc12 (stereo not drawn) [Example 97, 6-(4-(6-isopropyl-5-(8-methoxy-[1,2,4]triazolo[1,5-a]pyridin-6-yl)-4H-pyrrolo[3,2-d]thiazol-2-yl)cyclohexyl)-2-thia-6-azaspiro[3.3]heptane 2,2-dioxide]",8.62,7.38,5.26
"COc1cc(-c2[nH]c3sc(C4CCC(NC5(C#N)CC5)CC4)nc3c2C(C)C)cn2ncnc12 (stereo not drawn) [Example 106, 1-((4-(6-isopropyl-5-(8-methoxy-[1,2,4]triazolo[1,5-a]pyridin-6-yl)-4H-pyrrolo[3,2-d]thiazol-2-yl)cyclohexyl)amino)cyclopropane-1-carbonitrile]",8.65,7.04,4.84
"COc1cc(-c2[nH]c3sc(C4CCC(NC5(C#N)CC5)CC4)nc3c2C(C)C)cn2ncnc12 (stereo not drawn) [Example 107, 1-((4-(6-isopropyl-5-(8-methoxy-[1,2,4]triazolo[1,5-a]pyridin-6-yl)-4H-pyrrolo[3,2-d]thiazol-2-yl)cyclohexyl)amino)cyclopropane-1-carbonitrile]",8.44,6.72,4.81
"COc1cc(-c2[nH]c3sc(C4CCC(N(C)C5COC5)CC4)nc3c2C(C)C)cn2ncnc12 (stereo not drawn) [Example 124, N-(4-(6-isopropyl-5-(8-methoxy-[1,2,4]triazolo[1,5-a]pyridin-6-yl)-4H-pyrrolo[3,2-d]thiazol-2-yl)cyclohexyl)-N-methyloxetan-3-amine]",8.11,7.50,4.54
"COc1cc(-c2[nH]c3sc(C4CCC(NC(=O)CN(C)C)CC4)nc3c2C(C)C)cn2ncnc12 (stereo not drawn) [Example 126, 2-(dimethylamino)-N-(4-(6-isopropyl-5-(8-methoxy-[1,2,4]triazolo[1,5-a]pyridin-6-yl)-4H-pyrrolo[3,2-d]thiazol-2-yl)cyclohexyl)acetamide]",9.01,8.17,4.88
"COc1cc(-c2[nH]c3sc(C4CCC(NS(C)(=O)=O)CC4)nc3c2C(C)C)cn2ncnc12 (stereo not drawn) [Example 127, N-(4-(6-isopropyl-5-(8-methoxy-[1,2,4]triazolo[1,5-a]pyridin-6-yl)-4H-pyrrolo[3,2-d]thiazol-2-yl)cyclohexyl)methanesulfonamide]",8.70,6.75,< 4.30
"CCN(C)CC(=O)N[C@H]1CC[C@H](c2nc3c(C(C)C)c(-c4cc(OC)c5ncnn5c4)[nH]c3s2)CC1 [Example 128, Trans 2-(ethyl(methyl)amino)-N-(4-(6-isopropyl-5-(8-methoxy-[1,2,4]triazolo[1,5-a]pyridin-6-yl)-4H-pyrrolo[3,2-d]thiazol-2-yl)cyclohexyl)acetamide]",8.92,8.08,4.87
"COc1cc(-c2[nH]c3sc(C4CCC(NC(=O)CNCC(C)C)CC4)nc3c2C(C)C)cn2ncnc12 (stereo not drawn) [Example 129, 2-(isobutylamino)-N-(4-(6-isopropyl-5-(8-methoxy-[1,2,4]triazolo[1,5-a]pyridin-6-yl)-4H-pyrrolo[3,2-d]thiazol-2-yl)cyclohexyl)acetamide]",8.87,8.13,4.84
"Cc1c(-c2[nH]c3sc(C4CCC(NCC(N)=O)CC4)nc3c2C(C)C)cn2ncnc2c1C (stereo not drawn) [Example 210, 2-((4-(5-(7,8-dimethyl-[1,2,4]triazolo[1,5-a]pyridin-6-yl)-6-isopropyl-4H-pyrrolo[3,2-d]thiazol-2-yl)cyclohexyl)amino)acetamide]",8.74,8.91,4.62
"Cc1c(-c2[nH]c3sc(C4CCC(NCC(N)=O)CC4)nc3c2C(C)C)cn2ncnc2c1C (stereo not drawn) [Example 211, 2-((4-(5-(7,8-dimethyl-[1,2,4]triazolo[1,5-a]pyridin-6-yl)-6-isopropyl-4H-pyrrolo[3,2-d]thiazol-2-yl)cyclohexyl)amino)acetamide]",9.10,9.24,4.85
"Cc1c(-c2[nH]c3sc(N4CCNCC4)nc3c2C(C)C)cn2ncnc2c1C [Example 278, 5-(7,8-dimethyl-[1,2,4]triazolo[1,5-a]pyridin-6-yl)-6-isopropyl-2-(piperazin-1-yl)-4H-pyrrolo[3,2-d]thiazole]",8.84,9.48,4.97
"Cc1c(-c2[nH]c3sc(N4CCNCC4)nc3c2C(C)C)cn(C)c(=O)c1C [Example 279, 5-(6-isopropyl-2-(piperazin-1-yl)-4H-pyrrolo[3,2-d]thiazol-5-yl)-1,3,4-trimethylpyridin-2(1H)-one]",7.96,8.97,4.62
"Cc1c(-c2[nH]c3sc(N4CCN(C(=O)CN(C)C)CC4)nc3c2C(C)C)cn2ncnc2c1C [Example 280, 1-(4-(5-(7,8-dimethyl-[1,2,4]triazolo[1,5-a]pyridin-6-yl)-6-isopropyl-4H-pyrrolo[3,2-d]thiazol-2-yl)piperazin-1-yl)-2-(dimethylamino)ethan-1-one]",8.90,9.14,5.30
